Assay results published in patent publication US8124793B2, “Derivatives of ethylene methanedisulfonate as cancer chemotherapeutic agents” (priority 2007, dated 2012).

What was measured:
Type in all cases: cell-based
OVCAR-3 = test: NCI screen, growth of human tumor cells: Ovarian Cancer OVCAR-3; conditions: OVCAR-3 (Ovarian Cancer), 10^−4 molar
Procedure: (§1) In the NCI screening process, each compound was tested and described by a minimum of 60 data points. The test data include, but are not limited to the type of cancer, the molar concentration used in the screen, and the percent growth of the cancer. In some cases, NMR and elemental analysis were used for structural assignment.

RXF-393 = test: NCI screen, growth of human tumor cells: Renal Cancer RXF-393
Procedure: as §1

SNB-75 = test: NCI screen, growth of human tumor cells: CNS Cancer SNB-75; conditions: SNB-75 (CNS Cancer), 10^−4 molar
Procedure: as §1

human cancer cells = test: NCI screen summary over the cancers tested (negative growth of human cancer cells); conditions: 10^−4 M conc.; cancers with negative growth / cancers tested
Procedure: as §1
The derivatives in the tables are grouped using the same category as in the tables 1-6.

CCRF-CEM = test: NCI screen, growth of human tumor cells: Leukemia CCRF-CEM; conditions: for percent of growth of human tumor cells: CCRF-CEM (Leukemia); for % Growth: CCRF-CEM
Procedure: as §1

NCI-H460 = test: NCI screen, growth of human tumor cells: Non-Small Cell Lung NCI-H460; conditions: NCI-H460 (Non-Small Cell Lung), 10^−4 molar
Procedure: as §1

MOLT-4 = test: NCI screen, growth of human tumor cells: Leukemia MOLT-4; conditions: for percent of growth of human tumor cells: MOLT-4 (Leukemia), 10^−4 molar
Procedure: as §1

ACHN = test: NCI screen, growth of human tumor cells: Renal Cancer ACHN; conditions: ACHN (Renal Cancer), 10^−4 molar
Procedure: as §1

HOP-18 = test: NCI screen, growth of human tumor cells: Non-Small Cell Lung HOP-18
Procedure: as §1

NCI-H522 = test: NCI screen, growth of human tumor cells: Non-Small Cell Lung NCI-H522
Procedure: as §1

SR = test: NCI screen, growth of human tumor cells: Leukemia SR; conditions: SR
Procedure: as §1

HOP-92 = test: NCI screen, growth of human tumor cells: Non-Small Cell Lung HOP-92
Procedure: as §1

HCT-15 = test: NCI screen, growth of human tumor cells: Colon Cancer HCT-15; conditions: HCT-15 (Colon Cancer), 10^−4 molar
Procedure: as §1

SF-539 = test: NCI screen, growth of human tumor cells: CNS Cancer SF-539; conditions: for percent of growth of human tumor cells: SF-539 (CNS Cancer), 10^−4 molar
Procedure: as §1

SK-MEL-5 = test: NCI screen, growth of human tumor cells: Melanoma SK-MEL-5; conditions: SK-MEL-5, 10^−4 molar
Procedure: as §1

K562 = test: NCI screen, growth of human tumor cells: Leukemia K562
Procedure: as §1

SF-295 = test: NCI screen, growth of human tumor cells: CNS Cancer SF-295; conditions: SF-295 (CNS Cancer), 10^−4 molar
Procedure: as §1

C[Si](C)(OCCS(=O)(=O)O)OC(=C1S(=O)(=O)OCCOS1(=O)=O)c1cccc2ccccc12.[Na+] [NSC 679049]
percent of growth of human tumor cells (OVCAR-3): 22%
percent of growth of human tumor cells (RXF-393; RXF-393 (Renal Cancer), 10^−4 molar): 23%

O=S1(=O)OCCOS(=O)(=O)C1=NNc1c(O)cc(S(=O)(=O)O)c2ccccc12 [NSC 686564]
percent of growth of human tumor cells (SNB-75): 7%
Percentage of cancers showing negative growth cancers tested (human cancer cells): 10^−4 M conc. = 0/5 = 0%
percent of growth of human tumor cells (CCRF-CEM; 10^−4 molar): 14%
percent of growth of human tumor cells (NCI-H460): 6%
percent of growth of human tumor cells (MOLT-4): 23%
percent of growth of human tumor cells (ACHN): 26%

COC=C1S(=O)(=O)OCCOS1(=O)=O [NSC 701691, ethylene 2-methoxy-1,1-ethylenedisulfonate]
% Growth (HOP-18; HOP-18, 10^−4 molar): 44%
% Growth (HOP-18; HOP-18, 10^−5 molar): 56%
% Growth (HOP-18; HOP-18, 10^−6 molar): 92%
% Growth (HOP-18; HOP-18, 10^−7 molar): 71%
% Growth (HOP-18; HOP-18, 10^−8 molar): 58%
% Growth (NCI-H522; NCI-H522, 10^−4 molar): 66%
% Growth (NCI-H522; NCI-H522, 10^−5 molar): 44%
% Growth (NCI-H522; NCI-H522, 10^−6 molar): 67%
% Growth (NCI-H522; NCI-H522, 10^−7 molar): 48%
% Growth (NCI-H522; NCI-H522, 10^−8 molar): 73%
Percentage of cancers showing negative growth cancers tested (human cancer cells): 10^−4 M conc. = 0/6 = 0%
percent of growth of human tumor cells (CCRF-CEM; 10^−4 molar): 24%
% Growth (RXF-393; RXF-393, 10^−4 molar): 23%
% Growth (RXF-393; RXF-393, 10^−5 molar): 55%
% Growth (RXF-393; RXF-393, 10^−6 molar): 60%
% Growth (RXF-393; RXF-393, 10^−7 molar): 68%
% Growth (RXF-393; RXF-393, 10^−8 molar): 63%
% Growth (SR; 10^−4 molar): 12%
% Growth (SR; 10^−5 molar): 49%
% Growth (HOP-92; HOP-92, 10^−4 molar): 44%
% Growth (HOP-92; HOP-92, 10^−5 molar): 56%
% Growth (HOP-92; HOP-92, 10^−6 molar): 92%
% Growth (HOP-92; HOP-92, 10^−7 molar): 71%
% Growth (HOP-92; HOP-92, 10^−8 molar): 58%

O=S1(=O)OCCOS(=O)(=O)C1c1nc(Cl)c(Cl)nc1Cl [NSC 720685]
percent of growth of human tumor cells (HCT-15): 7%
percent of growth of human tumor cells (NCI-H522; NCI-H522 (Non-Small Cell Lung), 10^−4 molar): −22%
Percentage of cancers showing negative growth cancers tested (human cancer cells): 10^−4 M conc. = 1/4 = 25%
percent of growth of human tumor cells (MOLT-4): 24%
percent of growth of human tumor cells (SF-539): 7%

CSC(=NC(=O)c1cn([C@H]2O[C@H](COC(C)=O)[C@H]3OC(C)(C)O[C@H]32)c2ccccc12)SC [NSC 732264]
percent of growth of human tumor cells (HOP-92; HOP-92 (Non-Small Cell Lung), 10^−4 molar): 22%

O=S1(=O)OCCCOS(=O)(=O)C1(Br)Br [compound 665940]
% Growth (SF-539; SF-539, 10^−4 molar): 63%
% Growth (SF-539; SF-539, 10^−5 molar): 99%
% Growth (SF-539; SF-539, 10^−6 molar): 43%
% Growth (SF-539; SF-539, 10^−7 molar): 62%
% Growth (SF-539; SF-539, 10^−8 molar): 47%

CC(=O)O[C@H]1CC[C@]2(C)C3C(=O)C[C@]4(C)[C@@H](C(C)=O)CC[C@@]4(C)[C@@H]3CC[C@H]2C1(C)C (stereo partly drawn) [compound 731278]
% Growth (SK-MEL-5): −78%

ethylene 2-hydroxy-2-solketalyl-ethylene-1,1-disulfonate [NSC 698123]
Percentage of cancers showing negative growth cancers tested (human cancer cells): 10^−4 M conc. = 0/3 = 0%
% Growth (CCRF-CEM; 10^−4 molar): 32%
% Growth (CCRF-CEM; 10^−5 molar): 58%
% Growth (CCRF-CEM; 10^−6 molar): 57%
% Growth (K562; K562, 10^−4 molar): 63%
% Growth (K562; K562, 10^−5 molar): 41%
% Growth (SF-539; SF-539, 10^−4 molar): 42%
% Growth (SF-539; SF-539, 10^−5 molar): 50%

ethylene (2-methyl-2-acetyl)-ethylene-1,1-disulfonate [NSC 698121]
percent of growth of human tumor cells (SF-295): 24%
Percentage of cancers showing negative growth cancers tested (human cancer cells): 10^−4 M conc. = 1/8 = 0%
% Growth (CCRF-CEM; 10^−4 molar): 18%
% Growth (CCRF-CEM; 10^−5 molar): 51%
% Growth (CCRF-CEM; 10^−6 molar): 61%
% Growth (CCRF-CEM; 10^−7 molar): 68%
percent of growth of human tumor cells (NCI-H460): 12%
% Growth (MOLT-4; MOLT-4, 10^−4 molar): (85) %
% Growth (MOLT-4; MOLT-4, 10^−5 molar): 46%
% Growth (K562; K562, 10^−4 molar): 54%
% Growth (K562; K562, 10^−5 molar): 59%
% Growth (K562; K562, 10^−6 molar): 54%
% Growth (K562; K562, 10^−7 molar): 52%
percent of growth of human tumor cells (ACHN): 29%
% Growth (SR; 10^−4 molar): 60%
% Growth (SR; 10^−5 molar): 31%
percent of growth of human tumor cells (SF-539): 18%
